Measured values published in patent US20260256792A1, “TREATMENT OF CHRONIC SPONTANEOUS URTICARIA BY ADMINISTERING (R)-2-[3-[4-AMINO-3-(2-FLUORO-4-PHENOXY-PHENYL)PYRAZOLO[3,4-D]PYRIMIDIN-1-YL]PIPERIDINE-1-CARBONYL]-4-METHYL-4-[4-(OXETAN-3-YL)PIPERAZIN-1-YL]PENT-2-ENENITRILE” (priority 2023, published 2026).

System: moderate-to-severe chronic spontaneous urticaria (CSU)
Experiment: Phase 2 CSU study: urticaria control test (UCT)
Assay type: in vivo, human
Set-up: key to UCT, Mean / UCT, Median / UCT change from baseline, Mean / UCT change from baseline, Median: UCT total = sum of 4 item scores; low = low disease control
Text: The study comprises a 12 week, randomized, double-blind, placebo-controlled, multi-center, dose-ranging efficacy and safety phase, followed by a 40 week open label extension (OLE) phase (see FIG. 1). The study consists of three phases and an optional OLE phase. […] To this end, the UCT was proposed as a tertiary endpoint in this study. […] The dermatology life quality index (DLQI) was proposed as a tertiary endpoint in this study. […] Low scores indicate high disease activity and low disease control. The UCT total score is calculated by adding all 4 individual item scores. […] The recall period is the previous 4 weeks. Patients were to complete the UCT questionnaire during their site visit.

[1] = 400 mg BID, End of study, omalizumab-naïve population
[2] = 400 mg BID, End of study, prior omalizumab use incl. incomplete responders
[3] = 400 mg BID, Week 4, ITT population
[4] = 400 mg BID, Week 4, omalizumab-naïve population
[5] = 400 mg BID, Week 4, prior omalizumab use incl. incomplete responders
[6] = 400 mg BID, Week 8, ITT population
[7] = 400 mg BID, Week 8, omalizumab-naïve population
[8] = 400 mg BID, Week 8, prior omalizumab use incl. incomplete responders
[9] = 400 mg BID, Week 12, ITT population
[10] = 400 mg BID, Week 12, omalizumab-naïve population
[11] = 400 mg BID, Week 12, prior omalizumab use incl. incomplete responders
[12] = 400 mg QPM, End of study, omalizumab-naïve population
[13] = 400 mg QPM, End of study, prior omalizumab use incl. incomplete responders
[14] = 400 mg QPM, Week 4, ITT population
[15] = 400 mg QPM, Week 4, omalizumab-naïve population
[16] = 400 mg QPM, Week 4, prior omalizumab use incl. incomplete responders

CC(C)(C=C(C#N)C(=O)N1CCC[C@@H](n2nc(-c3ccc(Oc4ccccc4)cc3F)c3c(N)ncnc32)C1)N1CCN(C2COC2)CC1 [rilzabrutinib, (R)-2-[3-[4-amino-3-(2-fluoro-4-phenoxy-phenyl)pyrazolo[3,4-d]pyrimidin-1-yl]piperidine-1-carbonyl]-4-methyl-4-[4-(oxetan-3-yl)piperazin-1-yl]pent-2-enenitrile]
UCT change from baseline, Mean [1]: 0.00
UCT change from baseline, Median [1]: −2.00
UCT percent change from baseline, Mean [1]: −21.27%
UCT percent change from baseline, Median [1]: −57.14%
UCT, Median [1]: 3.00
UCT change from baseline, Median [2]: 5.50
UCT percent change from baseline, Mean [2]: 4.33%
UCT percent change from baseline, Median [2]: 4.00%
UCT, Mean [2]: 2.67
UCT, Median [2]: 3.00
UCT % Change difference for rilzabrutinib vs. placebo LS Mean (95% CI) [3]: 96.74 (−24.75, 218.23) %
UCT % Change from baseline LS Mean (SE) [3]: 236.29 (42.88) %
UCT Change difference for rilzabrutinib vs. placebo LS Mean (95% CI) [3]: 0.94 (−0.87, 2.75)
UCT Change from baseline LS Mean (SE) [3]: 4.27 (0.65)
UCT Post-baseline Mean (SD) [3]: 8.56 (4.95)
UCT % Change difference for rilzabrutinib vs. placebo LS Mean (95% CI) [4]: 120.19 (−1.20, 241.59) %
UCT % Change from baseline LS Mean (SE) [4]: 263.00 (44.80) %
UCT Change difference for rilzabrutinib vs. placebo LS Mean (95% CI) [4]: 1.27 (−0.56, 3.11)
UCT Change from baseline LS Mean (SE) [4]: 4.51 (0.66)
UCT Post-baseline Mean (SD) [4]: 8.85 (4.53)
UCT change from baseline, Mean [4]: 4.21
UCT change from baseline, Median [4]: 4.00
UCT percent change from baseline, Mean [4]: 220.19%
UCT percent change from baseline, Median [4]: 75.00%
UCT, Mean [4]: 8.85
UCT, Median [4]: 9.00
UCT change from baseline, Mean [5]: 4.33
UCT change from baseline, Median [5]: 4.00
UCT percent change from baseline, Mean [5]: 151.39%
UCT percent change from baseline, Median [5]: 137.50%
UCT, Median [5]: 5.50
UCT % Change difference for rilzabrutinib vs. placebo LS Mean (95% CI) [6]: 139.58 (18.06, 261.09) %
UCT % Change from baseline LS Mean (SE) [6]: 304.12 (43.11) %
UCT Change difference for rilzabrutinib vs. placebo LS Mean (95% CI) [6]: 1.01 (−0.90, 2.92)
UCT Change from baseline LS Mean (SE) [6]: 5.38 (0.68)
UCT Post-baseline Mean (SD) [6]: 10.00 (4.71)
UCT % Change difference for rilzabrutinib vs. placebo LS Mean (95% CI) [7]: 158.55 (28.05, 289.04) %
UCT % Change from baseline LS Mean (SE) [7]: 328.12 (46.96) %
UCT Change difference for rilzabrutinib vs. placebo LS Mean (95% CI) [7]: 1.14 (−0.74, 3.02)
UCT Change from baseline LS Mean (SE) [7]: 5.61 (0.69)
UCT Post-baseline Mean (SD) [7]: 10.12 (4.20)
UCT change from baseline, Mean [7]: 5.70
UCT change from baseline, Median [7]: 5.00
UCT percent change from baseline, Mean [7]: 290.62%
UCT percent change from baseline, Median [7]: 114.29%
UCT change from baseline, Median [8]: 11.00
UCT percent change from baseline, Mean [8]: 248.33%
UCT percent change from baseline, Median [8]: 275.00%
UCT, Mean [8]: 9.20
UCT, Median [8]: 14.00
UCT % Change difference for rilzabrutinib vs. placebo LS Mean (95% CI) [9]: 109.34 (−24.34, 243.02) %
UCT % Change from baseline LS Mean (SE) [9]: 309.12 (47.68) %
UCT Change difference for rilzabrutinib vs. placebo LS Mean (95% CI) [9]: 0.71 (−1.27, 2.68)
UCT Change from baseline LS Mean (SE) [9]: 5.44 (0.71)
UCT Post-baseline Mean (SD) [9]: 9.92 (4.69)
UCT % Change difference for rilzabrutinib vs. placebo LS Mean (95% CI) [10]: 146.79 (5.56, 288.02) %
UCT % Change from baseline LS Mean (SE) [10]: 344.03 (53.11) %
UCT Change difference for rilzabrutinib vs. placebo LS Mean (95% CI) [10]: 0.80 (−1.21, 2.81)
UCT Change from baseline LS Mean (SE) [10]: 5.52 (0.74)
UCT Post-baseline Mean (SD) [10]: 10.03 (4.29)
UCT change from baseline, Mean [10]: 5.65
UCT change from baseline, Median [10]: 4.00
UCT percent change from baseline, Mean [10]: 301.53%
UCT percent change from baseline, Median [10]: 130.95%
UCT change from baseline, Median [11]: 8.00
UCT percent change from baseline, Mean [11]: 246.67%
UCT percent change from baseline, Median [11]: 266.67%
UCT, Mean [11]: 9.20
UCT change from baseline, Mean [12]: 8.50
UCT change from baseline, Median [12]: 8.50
UCT percent change from baseline, Mean [12]: 283.33%
UCT percent change from baseline, Median [12]: 283.33%
UCT change from baseline, Mean [13]: 8.00
UCT change from baseline, Median [13]: 8.00
UCT percent change from baseline, Mean [13]: 3.00%
UCT percent change from baseline, Median [13]: 3.00%
UCT, Mean [13]: 5.00
UCT, Median [13]: 5.00
UCT % Change difference for rilzabrutinib vs. placebo LS Mean (95% CI) [14]: −44.03 (−169.40, 81.34) %
UCT % Change from baseline LS Mean (SE) [14]: 95.52 (42.85) %
UCT Change difference for rilzabrutinib vs. placebo LS Mean (95% CI) [14]: −0.89 (−2.79, 1.00)
UCT Change from baseline LS Mean (SE) [14]: 2.44 (0.68)
UCT Post-baseline Mean (SD) [14]: 6.40 (3.11)
UCT % Change difference for rilzabrutinib vs. placebo LS Mean (95% CI) [15]: −48.50 (−174.55, 77.55) %
UCT % Change from baseline LS Mean (SE) [15]: 94.30 (43.68) %
UCT Change difference for rilzabrutinib vs. placebo LS Mean (95% CI) [15]: −0.88 (−2.74, 0.99)
UCT Change from baseline LS Mean (SE) [15]: 2.36 (0.66)
UCT Post-baseline Mean (SD) [15]: 6.35 (3.14)
UCT change from baseline, Mean [15]: 2.27
UCT change from baseline, Median [15]: 2.00
UCT percent change from baseline, Mean [15]: 102.47%
UCT percent change from baseline, Median [15]: 45.00%
UCT, Median [15]: 6.00
UCT change from baseline, Mean [16]: 3.00
UCT change from baseline, Median [16]: 3.00
UCT percent change from baseline, Mean [16]: 60.00%
UCT percent change from baseline, Median [16]: 60.00%
UCT, Mean [16]: 8.00
UCT, Median [16]: 8.00
